From patent US20110009435A1, “HETERO BICYCLIC CARBOXAMIDE DERIVATIVES AND THEIR PHARMACEUTICAL USE AND COMPOSITIONS” (Pfizer, Inc., priority 2007, published 2011)

What was measured:
Type in all cases: biochemical
[1] = molecular target: T1, Human recombinant MMP-12 (Homo sapiens, UniProt P39900); assay: In vitro MMP inhibition assay, MMP-12 catalytic domain (fluorogenic peptide substrate cleavage, Ki); details: human MMP-12, catalytic domain (CD); read-out: hMMP Ki 12/CD
T1 construct: The catalytic domain of MMP-12 and MMP-15 enzymes were purchased commercially for these assays; purchased
T1 sequence (P39900 106-263 limits assumed): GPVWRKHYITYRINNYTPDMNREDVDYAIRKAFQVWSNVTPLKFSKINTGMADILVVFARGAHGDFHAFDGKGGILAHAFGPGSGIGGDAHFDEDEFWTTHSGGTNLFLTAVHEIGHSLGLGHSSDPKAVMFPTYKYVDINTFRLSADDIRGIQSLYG
Procedure: (§1) Matrix Metalloproteinase inhibitor compounds were analyzed in in vitro MMP Inhibition assays to determine their ability to inhibit the MMP cleavage of peptide substrates. Inhibition constants (Ki) were calculated from the assayed compound-MMP interactions.
(§2) Human recombinant MMP-1, MMP-2, MMP-3, MMP-7, MMP-9, MMP-12, MMP-13, MMP-14 and MMP-15 were used in these assays. The enzymes are prepared following known laboratory procedures. Protocols for the preparation and use of these enzymes are available in the scientific literature. See, e.g., Enzyme Nomenclature (Academic Press, San Diego, Calif., 1992) and the citations therein. See also Frije et al., J. Biol. Chem., 26(24), 16766-73 (1994).
(§3) The catalytic domain of MMP-12 and MMP-15 enzymes were purchased commercially for these assays.
(§4) The fluorogenic, methoxycoumarin-containing polypeptide substrate MCA-ArgProLeuGlyLeuDpaAlaArgGluArgNH2 was used as the MMP substrate in the MMP inhibition assays for human recombinant MMP-1, MMP-2, MMP-7, MMP-9, MMP-12, MMP-13, MMP-14 and MMP-15. Here, “MCA” is 7-methoxycoumarin-4-yl acetyl and “Dpa” is 3-(2,4-dinitrophenyl)-L-2,3-di-aminopropionyl group. In the absence of MMP inhibitory activity, the substrate is cleaved at the Gly-Leu peptide bond. The cleavage separates the highly fluorogenic peptide from the 2,4-dinitrophenyl quencher, resulting in an increase of fluorescent intensity.
(§5) For the human MMP-1, MMP-2, MMP-7, MMP-9, MMP-12, MMP-13, MMP-14 and MMP-15 assays, dilutions of the inhibitors (or salts thereof) were prepared in 100% dimethyl sulfoxide (DMSO). The stock solutions were diluted in Buffer A (100 mM Tris-HCl, 100 mM NaCl, 10 mM CaCl2, 0.005% polyoxyethylene 23 lauryl ether, pH 7.5) to obtain solutions with different compound concentrations, i.e., assay solutions with different concentrations of the assayed MMP inhibitory compound in 1% DMSO. The experiment controls contained the same amount of Buffer A/DMSO as the assayed sample, but contained no inhibitor.
(§6) To determine Ki, the inhibitor samples are incubated at room temperature for 1 hr in the presence of enzyme and then 4 μM of appropriate MMP substrate was added, and samples were analyzed on a Tecan SpectraFlour Plus plate reader. The excitation wavelength is 330 nm, and the emission (fluorescence) wavelength is 420 nm. In the absence of MMP inhibitory activity, the substrate is cleaved at the Gly-Leu bond resulting in an increase of relative fluorescence. Inhibition is observed as a reduced rate of increase in relative fluorescence.
(§7) The inhibitors are analyzed using a single low enzyme concentration with a single substrate concentration fixed at or below the Km. This protocol is a modification of method by Knight et al., FEBS Lett., 296(3), 263-266 (1992). Apparent inhibitory constants are determined by non-linear regression of reaction velocity as a function of inhibitor and enzyme concentration using Morrison's equation, as described by Kuzmic, Anal. Biochem. 286, 45-50 (2000). Modifications were made in the non-linear regression method to allow a common control reaction rate and effective enzyme concentration to be shared between all dose-response relationships on a given assay plate. Since the substrate concentration was chosen to be at or below the Km, the apparent Ki's from this analysis were reported as Ki's without correction for the influence of substrate.

[2] = molecular target: T2, Human recombinant MMP-13 (Homo sapiens, UniProt P45452); assay: In vitro MMP inhibition assay, MMP-13 (fluorogenic peptide substrate cleavage, Ki); details: human MMP-13, full length (FL); read-out: hMMP Ki 13/FL
T2 construct: made in house; host or cells: baculovirus expression (insect cells)
In short: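 Baculovirus-expressed proenzyme, APMA- or trypsin-activated, preincubated 1 h at room temperature with inhibitor in pH 7.5 Tris/NaCl/CaCl2 buffer, 1% DMSO. Then 4 μM MCA/Dpa quenched peptide added; fluorescence rate read at 330/420 nm. Ki from Morrison-equation regression, substrate at or below Km, uncorrected.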

[3] = molecular target: T3, Human recombinant MMP-15 (Homo sapiens, UniProt P51511); assay: In vitro MMP inhibition assay, MMP-15 catalytic domain (fluorogenic peptide substrate cleavage, Ki); details: human MMP-15, catalytic domain (CD); read-out: hMMP Ki 15/CD
T3 construct: The catalytic domain of MMP-12 and MMP-15 enzymes were purchased commercially for these assays; purchased
T3 sequence (P51511 132-304 limits assumed): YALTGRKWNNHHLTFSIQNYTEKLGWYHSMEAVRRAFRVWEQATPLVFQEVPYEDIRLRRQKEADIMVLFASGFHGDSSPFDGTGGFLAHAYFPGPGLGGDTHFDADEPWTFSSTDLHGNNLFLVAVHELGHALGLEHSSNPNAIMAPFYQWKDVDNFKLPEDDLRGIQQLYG
Procedure: as §1, §2, §3, §4, §5, §6, §7

[4] = molecular target: T4, Human recombinant MMP-9 (Homo sapiens, UniProt P14780); assay: In vitro MMP inhibition assay, MMP-9 (fluorogenic peptide substrate cleavage, Ki); details: human MMP-9, full length (FL); read-out: hMMP Ki 09/FL
T4 construct: made in house; host or cells: MMP-9-transfected HT1080 cells
T4 sequence (P14780 107-707 limits assumed): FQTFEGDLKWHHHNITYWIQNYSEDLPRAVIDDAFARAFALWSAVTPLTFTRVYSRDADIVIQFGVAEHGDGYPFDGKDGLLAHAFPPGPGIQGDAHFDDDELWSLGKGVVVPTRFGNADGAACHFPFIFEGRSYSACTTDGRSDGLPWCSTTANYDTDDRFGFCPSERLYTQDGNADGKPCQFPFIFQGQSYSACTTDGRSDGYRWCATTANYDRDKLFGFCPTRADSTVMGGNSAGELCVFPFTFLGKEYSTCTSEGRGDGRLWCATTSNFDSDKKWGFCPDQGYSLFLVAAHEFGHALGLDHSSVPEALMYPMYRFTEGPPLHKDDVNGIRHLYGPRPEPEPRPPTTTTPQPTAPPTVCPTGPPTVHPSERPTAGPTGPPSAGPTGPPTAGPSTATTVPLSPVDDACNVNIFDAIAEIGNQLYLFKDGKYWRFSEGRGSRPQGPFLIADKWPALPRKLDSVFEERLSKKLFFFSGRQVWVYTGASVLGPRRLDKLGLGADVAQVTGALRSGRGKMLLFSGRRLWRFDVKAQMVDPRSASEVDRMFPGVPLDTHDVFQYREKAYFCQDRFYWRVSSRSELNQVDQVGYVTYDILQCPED
Procedure: as §1, §2
The MMP-1 proenzyme may be purified from spent media of MMP-1-transfected HT-1080 cells and the protein purified on a zinc chelating column. The MMP-2 proenzyme may be purified by gelatin Sepharose chromatography from MMP-2-transfected p2AHT2 cells. […]
The inhibitors are analyzed using a single low enzyme concentration with a single substrate concentration fixed at or below the Km. […] Apparent inhibitory constants are determined by non-linear regression of reaction velocity as a function of inhibitor and enzyme concentration using Morrison's equation, as described by Kuzmic, Anal. Biochem. 286, 45-50 (2000). […]

Q: What does the source list for COc1cccc(CNC(=O)c2nc3ccc(F)c(OCCC4CCN(C(=O)CO)CC4)c3c(=O)[nH]2)c1 [Example 34, 6-fluoro-5-[2-(1-glycoloylpiperidin-4-yl)ethoxy]-N-(3-methoxybenzyl)-4-oxo-3,4-dihydroquinazoline-2-carboxamide]?
A: Ki [1]: 6.53 µM; Ki [2]: 0.000118 µM; Ki [3]: > 10 µM; Ki [4]: > 10 µM
